Experimental data taken from patent US20240190876A1, “Tricyclic Urea Compounds As JAK2 V617F Inhibitors” (Incyte Corporation, priority 2022, published 2024).

How the values were obtained:
[1] = molecular target: T1, pseudo-kinase domain (JH2) of human V617F mutant JAK2 (Homo sapiens, UniProt O60674, F794H/V617F/W659A/W777A); assay: JAK2 LanthaScreen JH2-V617F Binding Assay; conditions: 50 nM JAK2-JH2 tracer, 1 hour at 25° C., read-out: JH2 V617F Bind IC50
T1 construct: pseudo-kinase domain (JH2, amino-acids 536-812 with 3 surface mutations W659A, W777A, F794H); His (C); purchased BPS Bioscience 79498; host or cells: baculovirus expression system
Description: JAK2 JH2-V617F binding assay utilizes pseudo-kinase domain (JH2, amino-acids 536-812 with 3 surface mutations W659A, W777A, F794H) of human V617F mutant JAK2 expressed as C-terminal His-Avi-tagged, biotinylated protein in a baculovirus expression system (BPS Bioscience, Catalog #79498). The assay was conducted in black 384-well polystyrene plates in a final reaction volume of 20 μL. JAK2 JH2-V617F (0.26 nM) was incubated with compounds (100 nL serially diluted in DMSO) in the presence of 50 nM Fluorescent JAK2-JH2 Tracer (MedChem Express Catalog #HY-102055) and 0.25 nM Streptavidin-Tb cryptate (Cisbio Part #610SATLB) in assay buffer (50 mM Tris, pH=7.5, 10 mM MgCl2, 0.01% Brij-35, 0.1% BSA, 1 mM EGTA, 5% Glycerol and 5 mM DTT). Non-specific binding was accessed in the presence of 2 mM ATP. After incubation for 1 hour at 25° C., LanthaScreen signals were read on a PHERAstar FS plate reader (BMG LABTECH). Data was analyzed with IDBS XLfit and GraphPad Prism 5.0 software using a four parameter dose response curve to determine IC50 for each compound.

[2] = test system: pSTAT5 signaling in SET-2 cells in whole blood; assay: pSTAT5 SET-2 Whole Blood MSD Assay; format: cell-based; conditions: Homo sapiens, SET-2 cells with whole blood, 2 hour incubation, read-out: SET2 WB IC50
Description: SET-2 cells shipped from ABS, RPMI1640 medium, Fetal Bovine Serum from Gibco, Phospho-STAT5a,b Whole Cell Lysate Kit from Mesoscale, Retronectin (Recombinant Human Fibronectin Fragment) from TaKaRa, 96 well cell culture plate flat bottom from Corning, lysis buffer from Cell Signaling Technology, and sterile PBS from Gibco. Whole Blood from by BioIVT.
SET-2 cells were cultured in RPMI media with 20% FBS at 37° C. humidified incubator supplied with 5% CO2. On the day of the assay, 40 μL per well of diluted retronectin working solution was added to sterile 96-well clear flat bottom tissue culture plates (1:200 dilution of retronectin in sterile PBS) and incubated at 37C for 1 hour. After 1 hour, the retronectin working solution was aspirated and SET-2 cells were seeded at 100,000/well in RPMI+20% FBS. Cells were incubated overnight at 37° C. and 5% CO2.
The next day, the medium was removed and 40 μL of diluted compounds in serum-free RPMI and whole blood was added to the cells for a 2 hour incubation at 37° C. and 5% CO2. The compound starting concentration is 20 μM and 2.5 fold serial diluted down to 0.21 nM. The whole blood and compound mixture was then aspirated off using the BlueCat plate washer and washed 1× with PBS. Cells were lysed by adding 40 μL of 3X complete lysis buffer and shaken at room temperature for 45-60 minutes (complete lysis buffer consists of Cell Signaling Technology lysis buffer diluted to 3X and supplemented with Mesoscale's protease inhibitor, phosphatase I inhibitor, and phosphatase II inhibitor). The pSTAT5 MSD plates were blocked by adding 150 μL of Blocker A solution per well to the MSD plates and incubated at room temperature with shaking at 400 rpm for one hour or longer. After blocking, plates were washed 3X with 300 μL/well of IX Tris Wash Buffer. After lysis, added 25 μL per well of lysed sample was added to MSD plate and incubated with shaking at 4° C. wrapped in foil overnight. The next day, plates were washed again and 25 μL/well of diluted 1X Detection Antibody Solution, wrapped in foil, and incubated at room temperature with shaking at 400 rpm for 1 hour.
Plates were then washed again and lastly, 150 μL/well of 1X Read Buffer T was added to all wells. Plates were analyzed on MSD Discovery within 5 minutes. […] Data analysis was performed in GraphPad Prism using a 4-parameter fit and data was reported as Average ±SD.

[3] = In Vitro Intrinsic Clearance; format: in vitro ADME; conditions: human liver microsomes, 1 μM compound, NADPH, scaled to human
Description: For in vitro metabolic stability experiments, test compounds were incubated with human liver microsomes at 37° C. The incubation mixture contained test compounds (1 μM), NADPH (2 mM), and human liver microsomes ([…]) in 100 mM phosphate buffer (pH 7.4). The mixture was pre-incubated for 2 min at 37° C. before the addition of NADPH. Reactions were commenced upon the addition of NADPH and quenched with ice-cold methanol at 0, 10, 20, and 30 min. Terminated incubation mixtures were analyzed using LC-MS/MS system. The analytical system consisted of a Shimadzu LC-30AD binary pump system and SIL-30AC autosampler (Shimadzu Scientific Instruments, Columbia, MD) coupled with a Sciex Triple Quad 6500+mass spectrometer from Applied Biosystems (Foster City, CA). […] Mobile phase A consisted of 0.1% formic acid in water, and mobile phase B consisted of 0.1% formic acid in acetonirile. The total LC-MS/MS runtime was 2.75 minutes with a flow rate of 0.75 mL/min. Peak area integrations and peak area ratio calculations were performed using Analyst software (version 1.6.3) from Applied Biosystems.
The in vitro intrinsic clearance, CLint, in vitro, was calculated from the t1/2 of test compound disappearance as CLint, in vitro=(0.693/t1/2)×(1/Cprotein), where Cprotein is the protein concentration during the incubation, and t1/2 was determined by the slope (k) of the log-linear regression analysis of the concentration versus time profiles; thus, t1/2ln2/k. The CLint, in vitro values were scaled to the in vivo values for human by using physiologically based scaling factors, hepatic microsomal protein concentrations (45 mg protein/g liver), and liver weights (21 g/kg body weight). The equation CLint=CLint, in vitro×(mg protein/g liver weight)×(g liver weight/kg body weight) was used. The in vivo hepatic clearance (CLH) was then calculated by using CLint and hepatic blood flow, Q (20 mL·min^−1kg^−1 in humans) in the well-stirred liver model disregarding all binding from CLH (Q×CLint)/(Q+CLint). The hepatic extraction ratio was calculated as CLH divided by Q.

T1 sequence (O60674 536-812 V617F/W659A/W777A/F794H): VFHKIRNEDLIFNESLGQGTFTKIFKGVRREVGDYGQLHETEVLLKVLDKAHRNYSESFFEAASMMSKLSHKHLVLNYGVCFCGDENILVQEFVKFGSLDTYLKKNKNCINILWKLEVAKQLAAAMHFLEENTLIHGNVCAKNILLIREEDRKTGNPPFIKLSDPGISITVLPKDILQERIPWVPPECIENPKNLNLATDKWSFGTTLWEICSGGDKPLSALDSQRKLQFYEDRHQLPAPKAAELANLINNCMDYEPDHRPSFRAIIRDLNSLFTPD

Q: What does the source list for `[2H]C([2H])([2H])n1ncc2cc(-c3c(-c4cn(CC)nc4F)[nH]c4ncc5c(c34)n([C@H]3CC[C@@](C)(NC(=O)C4CC4)CC3)c(=O)n5C)ccc21` [Example 5, N-((1s,4s)-4-(7-(1-Ethyl-3-fluoro-1H-pyrazol-4-yl)-3-methyl-8-(1-(methyl-d3)-1H-indazol-5-yl)-2-oxo-3,6-dihydroimidazo[4,5-d]pyrrolo[2,3-b]pyridin-1(2H)-yl)-1-methylcyclohexyl)cyclopropanecarboxamide]?
A: IC50 [1]: ≤ 10 nM; IC50 [2]: ≤ 2500 nM; h-IntCL [3]: ‡ (‡ refers to h-IntCL of <0.7 L/h/kg)

Q: Which IC50 [1] does the source give for `[2H]C([2H])([2H])n1cc(-c2[nH]c3ncc4c(c3c2-c2ccc3c(cnn3C([2H])([2H])[2H])c2)n([C@H]2CC[C@@](C)(NC(=O)C3CC3)CC2)c(=O)n4C)c(F)n1` [Example 4, N-((1s,4s)-4-(7-(3-fluoro-1-(methyl-d3)-1H-pyrazol-4-yl)-3-methyl-8-(1-(methyl-d3)-1H-indazol-5-yl)-2-oxo-3,6-dihydroimidazo[4,5-d]pyrrolo[2,3-b]pyridin-1(2H)-yl)-1-methylcyclohexyl)cyclopropanecarboxamide] here?
A: The IC50 was ≤ 10 nM.

Q: What about the IC50 [2] of the same compound?
A: The IC50 was ≤ 2500 nM.

Q: And the h-IntCL [3]?
A: The h-IntCL was “‡ (‡ refers to h-IntCL of <0.7 L/h/kg)”.

Q: Which IC50 [1] does the source give for `[2H]C([2H])([2H])n1cc(-c2[nH]c3ncc4c(c3c2-c2ccc(OC)cc2)n([C@H]2CC[C@@](C)(NC(=O)C3CC3)CC2)c(=O)n4C)c(F)n1` [Example 3, N-((1s,4s)-4-(7-(3-fluoro-1-(methyl-d3)-1H-pyrazol-4-yl)-8-(4-methoxyphenyl)-3-methyl-2-oxo-3,6-dihydroimidazo[4,5-d]pyrrolo[2,3-b]pyridin-1(2H)-yl)-1-methylcyclohexyl)cyclopropanecarboxamide] here?
A: The IC50 was ≤ 10 nM.

Q: What about the IC50 [2] of the same compound?
A: Its IC50 is 2500 to 5000 nM.

Q: And the h-IntCL [3]?
A: Its h-IntCL is “‡ ‡ (‡ ‡ refers to h-IntCL of ≥0.7 L/h/kg to ≤1 L/h/kg)”.

Q: For `[2H]C([2H])([2H])n1ncc2cc(-c3c(-c4cn(C)nc4OC)[nH]c4ncc5c(c34)n([C@H]3CC[C@@](C)(NC(=O)C4CC4)CC3)c(=O)n5C)ccc21` [Example 2, N-((1s,4s)-4-(7-(3-Methoxy-1-methyl-1H-pyrazol-4-yl)-3-methyl-8-(1-(methyl-d3)-1H-indazol-5-yl)-2-oxo-3,6-dihydroimidazo[4,5-d]pyrrolo[2,3-b]pyridin-1(2H)-yl)-1-methylcyclohexyl)cyclopropanecarboxamide], which IC50 [1] is on record?
A: Its IC50 is ≤ 10 nM.

Q: What about the IC50 [2] of the same compound?
A: Its IC50 is ≤ 2500 nM.

Q: What about the h-IntCL [3] of the same compound?
A: Its h-IntCL is “‡ (‡ refers to h-IntCL of <0.7 L/h/kg)”.

Q: For `COc1ccc(-c2c(-c3cn(C)nc3OC)[nH]c3ncc4c(c23)n([C@H]2CC[C@@](C)(NC(=O)C3CC3)CC2)c(=O)n4C)cc1` [Example 1, N-((1s,4s)-4-(7-(3-Methoxy-1-methyl-1H-pyrazol-4-yl)-8-(4-methoxyphenyl)-3-methyl-2-oxo-3,6-dihydroimidazo[4,5-d]pyrrolo[2,3-b]pyridin-1(2H)-yl)-1-methylcyclohexyl)cyclopropanecarboxamide], which IC50 [1] is on record?
A: Its IC50 is ≤ 10 nM.

Q: What about the IC50 [2] of the same compound?
A: Its IC50 is 2500 to 5000 nM.

Q: And the h-IntCL [3]?
A: The h-IntCL was “‡ (‡ refers to h-IntCL of <0.7 L/h/kg)”.

Q: With `[2H]C([2H])([2H])n1cc(-c2[nH]c3ncc4c(c3c2-c2ccc(OC)cc2)n([C@H]2CC[C@@](C)(NC(=O)[C@H]3C[C@H]3F)CC2)c(=O)n4C([2H])([2H])[2H])c(F)n1` [Example 6, (1R,2R)-2-Fluoro-N-((1s,4S)-4-(7-(3-fluoro-1-(methyl-d3)-1H-pyrazol-4-yl)-8-(4-methoxyphenyl)-3-(methyl-d3)-2-oxo-3,6-dihydroimidazo[4,5-d]pyrrolo[2,3-b]pyridin-1(2H)-yl)-1-methylcyclohexyl)cyclopropane-1-carboxamide] as the compound, how does the IC50 [1] read?
A: Its IC50 is ≤ 10 nM.

Q: And the IC50 [2]?
A: Its IC50 is ≤ 2500 nM.

Q: What about the h-IntCL [3] of the same compound?
A: The h-IntCL was “‡ (‡ refers to h-IntCL of <0.7 L/h/kg)”.
